Experimental data published in patent US9040691B2, “Hydroxymethylaryl-substituted pyrrolotriazines as ALK1 inhibitors” (BAYER INTELLECTUAL PROPERTY GMBH, priority 2011, dated 2015).

How the values were obtained:
ALK1 kinase = ALK1 kinase (Homo sapiens (Human), UniProt P37023); test: In vitro enzyme inhibition using scintillation of incorporated radio label (flashplate assay); type: biochemical; conditions: biotinylated α-casein, 33P-ATP, 500 nM ATP
[1] = system: laser-induced choroidal neovascularisation; test: Topical efficacy in the laser-induced choroidal neovascularization (CNV) model; type: in vivo, rat; conditions: Brown-Norway rats, eye drops 10 μl of 20 mg/ml twice daily; for vascular leakage [HRA score]: angiography day 21, score 0-3; for choroidal neovascularisation lesion size: day 23
Experimental: B-4. Topical Efficacy in the Laser-Induced Choroidal Neovascularization (CNV) Model
For this purpose, 65 pigmented Brown-Norway rats with no visible sign of ocular defects were selected and randomly assigned to six different groups (for n-numbers, see table below). On day 0, the animals were anaesthetized by an intraperitoneal injection (15 mg/kg xylazine and 80 mg/kg ketamine). After instillation of one drop of 0.5% tropicamide to dilate the pupils, choroidal neovascularisation was induced by burning six holes into the retina (disruption of Bruch's membrane) of one eye per animal using a 532 nm argon laser (lesion size: 50 μm; laser intensity: 150 mW; stimulus duration: 100 ms). Test compounds and vehicle controls were topically administered twice daily by instilling respective eye drops into the affected eye. The test compounds were dosed as follows: 10 μl of an eye drop formulation containing 20 mg/ml of the respective test compound suspended either in 100% liquid paraffin or in an aqueous vehicle (HPMC 15 cP 3.5%, polysorbate 80 0.5%, NaCl 0.9% in water) were applied to the affected eye twice daily at a 10 to 14 hour interval during the complete observation period of 23 days. Control animals received the respective vehicle (100% liquid paraffin or aqueous vehicle) topically twice daily. The body weight of all animals was recorded before the start and once daily during the study.
An angiography was performed on day 21 using a fluorescence fundus camera (Kowe). Here, after anaesthesia and pupillary dilation, 10% sodium fluorescein dye was injected subcutaneously, and images were recorded 2 and 10 min after dye injection. The vascular leakage of the fluorescein on the angiograms was evaluated by three different examiners who were blinded for group allocation (test compound versus vehicle), and scored with 0 (no leakage) to 3 (strongly stained).
On day 23, animals were sacrificed, and eyes were harvested and fixed in 4% paraformaldehyde solution for 1 hour at room temperature. After washing, the retina was carefully peeled, washed, blocked and stained with a FITC-isolectine B4 antibody in order to visualize the vasculature. Then, the sclera-choroids were flat-mounted and examined under a fluorescence microscope (Keyence Biozero) at 488 nm excitation wavelength. The area (in μm^2) of choroidal neovascularization was measured using ImageTool software.

Sequence of ALK1 kinase (P37023 22-503): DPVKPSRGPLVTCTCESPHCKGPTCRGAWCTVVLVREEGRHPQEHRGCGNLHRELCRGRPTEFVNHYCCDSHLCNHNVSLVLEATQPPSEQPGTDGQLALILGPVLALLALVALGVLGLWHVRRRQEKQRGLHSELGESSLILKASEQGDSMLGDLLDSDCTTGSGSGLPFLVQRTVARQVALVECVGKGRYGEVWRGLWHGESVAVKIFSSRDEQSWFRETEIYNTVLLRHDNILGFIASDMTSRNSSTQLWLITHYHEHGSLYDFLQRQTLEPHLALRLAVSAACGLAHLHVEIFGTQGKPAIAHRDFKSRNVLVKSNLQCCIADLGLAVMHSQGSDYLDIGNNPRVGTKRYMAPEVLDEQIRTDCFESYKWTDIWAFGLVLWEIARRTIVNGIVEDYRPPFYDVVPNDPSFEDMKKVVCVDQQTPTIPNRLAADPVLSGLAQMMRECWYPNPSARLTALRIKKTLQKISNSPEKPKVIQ

Row | IC50 (ALK1 kinase) [nM] | Compound | vascular leakage [HRA score] ([1]; aqueous vehicle) | choroidal neovascularisation lesion size ([1]; aqueous vehicle) [μm^2 × 10 000] | vascular leakage [HRA score] ([1]; paraffin vehicle) | choroidal neovascularisation lesion size ([1]; paraffin vehicle) [μm^2 × 10 000]
1 | 2 | CCCc1cc(-c2ccc(CO)cc2)c2c(N)ncnn12 [Example 1, [4-(4-Amino-7-propylpyrrolo[2,1-f][1,2,4]triazin-5-yl)phenyl]methanol] |  |  |  | 
2 | 2.8 | CCCc1cc(-c2cc(F)c(CO)c(F)c2)c2c(N)ncnn12 [Example 2, [4-(4-Amino-7-propylpyrrolo[2,1-f][1,2,4]triazin-5-yl)-2,6-difluorophenyl]methanol] |  |  |  | 
3 | 4 | Nc1ncnn2c(CCCO)cc(-c3ccc(CO)cc3)c12 [Example 3, 3-{4-Amino-5-[4-(hydroxymethyl)phenyl]pyrrolo[2,1-f][1,2,4]triazin-7-yl}propan-1-ol] |  |  |  | 
4 | 1.3 | Nc1ncnn2c(C(O)C3CC3)cc(-c3cc(F)c(CO)c(F)c3)c12 (stereo not drawn) [Example 5, {4-Amino-5-[3,5-difluoro-4-(hydroxymethyl)phenyl]pyrrolo[2,1-f][1,2,4]triazin-7-yl}(cyclopropyl)methanol] |  |  |  | 
5 | 2 | Nc1ncnn2c1c(-c1cc(F)c(CO)c(F)c1)cc2[C@H]1CC[C@H](O)CC1 [Example 7, trans-4-[4-Amino-5-[3,5-difluoro-4-(hydroxymethyl)phenyl]pyrrolo[2,1-f][1,2,4]triazin-7-yl]-cyclohexanol] | 1.49 ± 0.24 | 6.14 ± 1.60 | 1.52 ± 0.21 | 6.21 ± 0.99
6 | 1.9 | Nc1ncnn2c([C@@H]3CCCNC3)cc(-c3cc(F)c(CO)c(F)c3)c12 [Example 11, (4-{4-Amino-7-[(3R)-piperidin-3-yl]pyrrolo[2,1-f][1,2,4]triazin-5-yl}-2,6-difluorophenyl)methanol] | 1.66 ± 0.29 | 5.50 ± 1.38 | 1.41 ± 0.29 | 6.45 ± 1.63
7 | 2 | Nc1nc(-c2cc(-c3ccc(CO)cc3)c3c(N)ncnn23)cs1 [Example 17, {4-[4-Amino-7-(2-amino-1,3-thiazol-4-yl)pyrrolo[2,1-f][1,2,4]triazin-5-yl]phenyl}methanol] |  |  |  | 
8 | 30 | Nc1ncnn2c(CN3CCOCC3)cc(-c3cc(F)c(CO)c(F)c3)c12 [Example 20, {4-[4-Amino-7-(morpholin-4-ylmethyl)pyrrolo[2,1-f][1,2,4]triazin-5-yl]-2,6-difluorophenyl}-methanol] |  |  |  | 
9 | 25 | Nc1ncnn2c(CN3CCOCC3)cc(-c3ccc(CO)c(F)c3)c12 [Example 21, {4-[4-Amino-7-(morpholin-4-ylmethyl)pyrrolo[2,1-f][1,2,4]triazin-5-yl]-2-fluorophenyl}methanol] |  |  |  | 
10 | 17 | Nc1ncnn2c(CN3CCOCC3)cc(-c3ccc(CO)c(Cl)c3)c12 [Example 22, {4-[4-Amino-7-(morpholin-4-ylmethyl)pyrrolo[2,1-f][1,2,4]triazin-5-yl]-2-chlorophenyl}methanol] |  |  |  | 
